Structures can show the parent of a compound that is named as a salt.
Legend:
[1] = tested on: S. aureus 133 Translation; test: In vitro transcription-translation with S. aureus extracts; type: biochemical; conditions: S30 extract, plasmid p1a template, firefly luciferase, 30° C. 60 min
Description: (§1) In Vitro Transcription-Translation with S. aureus Extracts
(§2) Construction of an S. aureus Luciferase Reporter Plasmid
(§3) A reporter plasmid which can be used in an in vitro transcription-translation assay for S. aureus is constructed by using the plasmid pBESTluc (Promega Corporation, USA). The E. coli tac promoter present in this plasmid in front of the firefly luciferase is replaced by the capA1 promoter with appropriate Shine-Dalgarno sequence from S. aureus. The primers CAPFor 5′-CGGCCAAGCTTACTCGGAT-[…] […]-3′ and CAPRev 5′-[…]-3′ are used for this. The primer CAPFor contains the capA1 promoter, the ribosome binding site and the 5′ region of the luciferase gene. After PCR using pBESTluc as template it is possible to isolate a PCR product which contains the firefly luciferase gene with the fused capA1 promoter. This is, after restriction with ClaI and HindIII, ligated into the vector pBESTluc which has likewise been digested with ClaI and HindIII. The resulting plasmid p1a is able to replicate in E. coli and be used as template in the S. aureus in vitro transcription-translation assay.
(§4) Preparation of S30 Extracts from S. aureus
(§5) Six liters of BHI medium are inoculated with a 250 ml overnight culture of an S. aureus strain and allowed to grow at 37° C. until the OD600 nm is 2-4. The cells are harvested by centrifugation and washed in 500 ml of cold buffer A (10 mM Tris acetate, pH 8.0, 14 mM Mg acetate, 1 mM DTT, 1 M KCl). After renewed centrifugation, the cells are washed in 250 ml of cold buffer A with 50 mM KCl, and the resulting pellets are frozen at −20° C. for 60 min. The pellets are thawed on ice in 30 to 60 min and taken up to a total volume of 99 ml in buffer B (10 mM Tris acetate, pH 8.0, 20 mM Mg acetate, 1 mM DTT, 50 mM KCl). 1.5 ml portions of lysostaphin (0.8 mg/ml) in buffer B are each introduced into 3 precooled centrifuge cups and each mixed with 33 ml of the cell suspension. The samples are incubated at 37° C., shaking occasionally, for 45 to 60 min, before 150 μl of a 0.5 M DTT solution are added. The lyzed cells are centrifuged at 30 000×g and 4° C. for 30 min. The cell pellet is taken up in buffer B and then centrifuged again under the same conditions, and the collected supernatants are combined. […]
(§6) Inhibition of protein biosynthesis of the compounds can be shown in an in vitro transcription-translation assay. […] The activity of the resulting luciferase can be detected by luminescence measurement. […]

[2] = tested on: S. aureus 133; test: Minimum inhibitory concentration (MIC), liquid dilution test; type: cell-based; conditions: minimal medium with 0.4% BH broth, 37° C., 18-24 h
Description: (§7) Determination of the Minimum Inhibitory Concentration (MIC):
(§8) The inhibitor concentration can in these cases be determined by standard microbiological methods (see, for example, The National Committee for Clinical Laboratory Standards. Methods for dilution antimicrobial susceptibility tests for bacteria that grow aerobically; approved standard-fifth edition. NCCLS document M7-A5 [ISBN 1-56238-394-9]. NCCLS, 940 West Valley Road, Suite 1400, Wayne, Pa. 19087-1898 USA, 2000). The MIC of the compounds of the invention is determined in the liquid dilution test on the 96-well microtiter plate scale. The bacterial microbes are cultivated in a minimal medium (18.5 mM Na2HPO4, 5.7 mM KH2PO4, 9.3 mM NH4Cl, 2.8 mM MgSO4, 17.1 mM NaCl, 0.033 μg/ml thiamine hydrochloride, 1.2 μg/ml nicotinic acid, 0.003 μg/ml biotin, 1% glucose, 25 μg/ml of each proteinogenic amino acid with the exception of phenylalanine; [H.-P. Kroll; unpublished]) with addition of 0.4% BH broth (test medium). In the case of Enterococcus faecalis ICB 27159, heat-inactivated fetal calf serum (FCS; GibcoBRL, Germany) is added to the test medium in a final concentration of 10%. Overnight cultures of the test microbes are diluted to an OD578 of 0.001 (to 0.01 in the case of Enterococci) in fresh test medium, and incubated 1:1 with dilutions of the test substances (1:2 dilution steps) in test medium (150 μl final volume). The cultures are incubated at 37° C. for 18-24 hours; Enterococci in the presence of 5% CO2.
(§9) The lowest substance concentration in each case at which bacterial growth was no longer visible is defined as the MIC. […] The compounds show a graded antibacterial effect against most of the test microbes.

[3] = tested on: S. aureus RN4220 Translation; test: In vitro transcription-translation with S. aureus extracts; type: biochemical; conditions: S30 extract, plasmid p1a template, firefly luciferase, 30° C. 60 min
Description: as §1, §2, §3, §4, §5, §6

[4] = tested on: E. coli MRE600 Translation; test: In vitro transcription-translation with E. coli extracts; type: biochemical, Escherichia coli; conditions: S30 extract, pBESTLuc template, firefly luciferase, 30° C. 60 min
Protocol: In Vitro Transcription-Translation with E. coli Extracts
An S30 extract is prepared by harvesting logarithmically growing Escherichia coli MRE 600 (M. Müller; University Freiburg), washing and employing them as described for the in vitro transcription-translation assay (Müller, M. and Blobel, G. Proc Natl Acad Sci USA (1984) 81, pp. 7421-7425).
1 μl of cAMP (11.25 mg/ml) are additionally added per 50 μl of reaction mix to the reaction mix for the in vitro transcription-translation assay. The assay mixture amounts to 105 μl, with 5 μl of the substance to be tested being introduced in 5% strength DMSO. 1 μg/100 pt of mixture of the plasmid pBESTLuc (Promega, Germany) are used as transcription template. After incubation at 30° C. for 60 min, 50 pt of luciferin solution (20 mM tricine, 2.67 mM MgSO4, 0.1 mM EDTA, 33.3 mM DTT pH 7.8, 270 μM CoA, 470 μM luciferin, 530 μM ATP) are added, and the resulting bioluminescence is measured in a luminometer for 1 minute. The IC50 is indicated by the concentration of an inhibitor which leads to 50% inhibition of the translation of firefly luciferase.

[5] = tested on: S. aureus 25701; test: Minimum inhibitory concentration (MIC), liquid dilution test; type: cell-based; conditions: Staphylococcus aureus, minimal medium with 0.4% BH broth, 37° C., 18-24 h
Description: as §7, §8, §9

[6] = tested on: B. catarrhalis M3; test: as above; type: cell-based; conditions: Moraxella catarrhalis, minimal medium with 0.4% BH broth, 37° C., 18-24 h
Description: as §7, §8, §9

[7] = tested on: Enterococcus faecalis ICB 27159; test: as above; type: cell-based; conditions: ICB27159, test medium with 10% heat-inactivated FCS, 5% CO2, 37° C., 18-24 h, read-out: MIC E. faecalis ICB 27159
Description: as §7, §8, §9

[8] = tested on: S. aureus RN4220; test: as above; type: cell-based; conditions: Staphylococcus aureus, minimal medium with 0.4% BH broth, 37° C., 18-24 h
Description: as §7, §8, §9

Row | Compound | IC50 [1] [nM] | MIC [2] [µM] | IC50 [3] [nM] | IC50 [4] [nM] | MIC [5] [µM] | MIC [6] [µM] | MIC [7] [µM] | MIC ([2]; Staphylococcus aureus, 133) [µM] | MIC [8] [µM]
1 | 2-Aminoethyl-(8S,11S,14S)-14-amino-11-[(2R)-3-amino-2-hydroxypropyl]-5,17-dihydroxy-9-methyl-10,13-dioxo-9,12-diazatricyclo[14.3.1.1^2,6]henicosa-1(20),2(21),3,5,16,18-hexaene-8-carboxylate trihydrochloride [Example 10] | 700 | 3.1 | – | – | – | – | – | – | –
2 | COC(=O)[C@@H]1Cc2cc(ccc2O)-c2ccc(O)c(c2)C[C@H](N)C(=O)N[C@@H](C[C@@H](O)CN)C(=O)N1 [Example 1, Methyl(8S,11S,14S)-14-amino-11-[(2R)-3-amino-2-hydroxypropyl]-5,17-dihydroxy-10,13-dioxo-9,12-diazatricyclo[14.3.1.1^2,6]henicosa-1(20),2(21),3,5,16,18-hexaene-8-carboxylate dihydrochloride] | 500 to 3000 | – | 1700 | 500 | 12.5 | 1.56 | 1.56 | 3.13 | 0.4
3 | CCOC(=O)[C@@H]1Cc2cc(ccc2O)-c2ccc(O)c(c2)C[C@H](N)C(=O)N[C@@H](C[C@@H](O)CN)C(=O)N1 [Example 2, Ethyl(8S,11S,14S)-14-amino-11-[(2R)-3-amino-2-hydroxypropyl]-5,17-dihydroxy-10,13-dioxo-9,12-diazatricyclo[14.3.1.1^2,6]henicosa-1(20),2(21),3,5,16,18-hexaene-8-carboxylate dihydrochloride] | 2400 to 4300 | – | – | 200 | – | 6.25 | – | 0.78 | –

Source: patent US20060258571A1, “Antibacterial ester macrocycles” (priority 2002, published 2006)
